Laboratory results from patent US20200368223A1, “METHODS FOR INHIBITING PHOSPHATE TRANSPORT” (Ardelyx, Inc., priority 2019, published 2020).
Entries after “also recorded” stand apart in the source; their conditions may differ.

Key:
[1] = tested on: adenine-induced uremic rat model; test: Adenine-induced uremic rat model; assay type: in vivo
Procedure: The effects of Cpd 002(were tested in an adenine-induced uremic rat model. Rats were fed a diet including 0.75% adenine and 1.2% phosphorus during the nephritis induction phase. The basal diet during the treatment phase was normal chow including 0.3% adenine and 0.6% phosphorus for 2 weeks. The rats were pair-fed the first 5 days (groups 1 and 2 to group 3, 4 days apart), and fed ad libitum afterwards. The treatment groups were as follows: vehicle, n=10; Cpd 002, 2 mg/kg/day drug-in-chow, n=10; and Cpd 002, 5 mg/kg/day drug-in-chow, n=12. Weekly measurements were taken for serum markers and kidney function.

[2] = haemodialysis patients; cited from earlier work
rats = test: Urinary excretion of phosphate and calcium in rats; assay type: in vivo, rat; details: 16 hours overnight urine
Procedure: The activity of compound 002 was tested for its effects on phosphorus and calcium levels in the urine of rats. Rats were dosed according to the schedule in Table E7.
The rats were kept for 16 hours overnight (in the dark, the typical feeding period) in individual metabolic cages, and urine was collected the following morning for analysis of phosphate and calcium levels. The study design is shown WO2014169094.

Sprague Dawley (SD) rats = test: Combination treatment with tenapanor and sevelamer in rats (urinary and renal phosphorous and sodium, BLISS model)
Procedure: A total of 48, approximately 8-week-old male Sprague Dawley (SD) rats (Envigo, Livermore, Calif.), weighing approximately 250 g on arrival, were housed 2-per cage in micro-isolator cages for a 48-hr acclimation period prior to being assigned to study groups. Animals were housed in a temperature (65-75° F.) and humidity (35-55%) controlled facility utilizing a reversed 12-hour light/dark cycle (7 AM-7 PM dark cycle). […] Body weights were recorded at study initiation and daily for the remainder of the study. Animals were maintained in accordance with the Guide for the Care and Use of Laboratory Animals (National Research Council, 2011). The study was conducted under a protocol approved by the Institutional Animal Care and Use Committee.
Rats were randomly assigned to one of eight groups (n=6/group) provided with a diet containing varying amounts of sevelamer (0-3% w/w) and were dosed by oral gavage twice daily with vehicle (0.01% Tween80) or tenapanor (0.15 mg/kg) for 11-consecutive days according to the study assignments shown in the following table.
Rats dosed orally with vehicle and provided diet without sevelamer (Group 1) served as the control group. Treatment arms included groups treated with tenapanor alone (0.15 mg/kg, bid), sevelamer alone (0.75, 1,5 or 3% w/w in chow) and the combination of tenapanor (0.15 mg/kg, bid) with each dose level of sevelamer (0.75, 1,5 or 3% w/w in chow). Animals were dosed in their home cages while pair-housed for the first five treatment days. On treatment day 6, all animals were housed individually in metabolic cages for the remainder of the study and continued to be provided ad libitum access to diet containing 0-3% sevelamer w/w and dosed twice daily with vehicle or tenapanor. Following two days acclimation to the metabolic cages, 24-hour food intake, water intake and urinary volume were measured and recorded for the final four treatment days. Urinary sodium and phosphorous concentration was measured by ion chromatography (IC). 24-hour urinary sodium and phosphorous excretion were calculated by multiplying ion concentration by 24-hour urine volume. Urinary ion excretion was also normalized to daily dietary ion intake to account for daily fluctuations in food intake.
Dosing solutions containing tenapanor (Ardelyx, Fremont Calif.) at a concentration of 0.03 mg/mL were made fresh weekly by adding the appropriate weight of tenapanor to 0.1% Tween 80 vehicle. The dose volume was 5 mL/kg for all groups.
Animals were dosed twice daily (bid) orally (po), immediately prior to lights out (7 AM) and during the middle of dark cycle (2 PM) with a standard gavage needle (38 mm, 20 G). Animals were removed from the holding or metabolic cages for dosing and then immediately returned to the cage of origin.
Urine samples were analyzed for sodium and phosphorous content on an ion chromatography system (Thermo Fisher Scientific ICS-3000 or ICS-5000+) coupled with conductivity detectors.

[3] = tested on: uremic rat model of CKD featuring vascular calcification; test: Rat model of uremia-associated vascular calcification (5/6th nephrectomy, calcitriol, 0.9% P diet); assay type: in vivo
Excerpt: Chronic kidney disease (CKD) has multiple pathogenic mechanisms, and advanced CKD is often characterized by disordered mineral metabolism (e.g., hyperphosphatemia, hypercalcemia) and vascular calcification.

[4] = In vitro dissolution of CPD002 formulations; assay type: physicochemical; details: CPD002 formulations at high pH
[5] = tested on: dietary salt-induced, partial renal ablation model of CKD; test: Renal insufficiency with high salt feed in nephrectomized rats; assay type: in vivo, rat
Procedure: The effects of Cpd 002 were tested in a dietary salt-induced, partial renal ablation model of CKD.

[6] = early time points, Cpd 002 2 or 5 mg/kg/day drug-in-chow
[7] = week three, at the highest dose
[8] = tenapanor 0.15 mg/kg po bid alone, four day collection period, relative to control group 1
[9] = Cpd 002 0.065 mg/g chow vs vehicle diet, listed as Cpd 002
[10] = endpoint day 27, Cpd 002 0.065 mg/g chow vs vehicle diet
[11] = endpoint, Cpd 002 0.065 mg/g chow vs vehicle diet

CN1Cc2c(Cl)cc(Cl)cc2[C@H](c2cccc(S(=O)(=O)NCCOCCOCCNC(=O)NCCCCNC(=O)NCCOCCOCCNS(=O)(=O)c3cccc([C@@H]4CN(C)Cc5c(Cl)cc(Cl)cc54)c3)c2)C1 [Tenapanor, tenapanor]
serum creatinine [1, 6]: reduced | serum phosphorus [1, 6]: reduced | heart remodeling (organ weight) ([1]; week three): trend towards lesser | kidney remodeling (organ weight) ([1]; week three): trend towards lesser | heart calcification [1, 7]: trend towards reduced | kidney calcification [1, 7]: trend towards reduced | serum phosphate levels [2]: significantly lower | urine phosphorus mass relative to the vehicle-only control (rats; Cpd 002 0.1-3.0 mg/kg): reduced | urine phosphorus mass relative to 48 mg/kg Renvela (rats; increasing dosages of Cpd 002): significantly reduced | urinary sodium excretion (Sprague Dawley (SD) rats; single agent, compared to vehicle control): significantly decreased | 24-hr urinary phosphorous excretion (Sprague Dawley (SD) rats; single agent, compared to vehicle control, final four days of treatment): significantly decreased | % Reduction Urinary Phosphorous Excretion When Dosed Alone (Sprague Dawley (SD) rats; [8]): 33.2% | % Reduction Urinary Sodium Excretion When Dosed Alone (Sprague Dawley (SD) rats; [8]): 82.1% | urinary sodium excretion (Sprague Dawley (SD) rats; tenapanor co-administered with all doses of sevelamer, compared to control): significantly reduced | hypertrophy of the heart (endpoint heart weight) [3, 9]: lessened; also recorded: reduce | hypertrophy of the kidney remnant (endpoint kidney remnant weight) [3, 9]: lessened; also recorded: reduce | plasma FGF-23 [3, 10]: reduced | plasma creatinine [3, 10]: reduced | plasma phosphorus ([3]; endpoint day 27, Cpd 002 0.065 mg/g chow vs vehicle diet, listed as Cpd 002): reduced; also recorded: anti-hyperphosphatemic effects | calcium in the stomach (soft tissue calcification) [3, 11]: reduced | phosphorus in the stomach (soft tissue calcification) [3, 11]: reduced | plasma aldosterone levels [3, 11]: increase | vascular calcification as measured by aortic mineral content ([3]; endpoint, Cpd 002 0.065 mg/g chow vs vehicle diet, listed as Cpd 002): reduce | moribundity ([3]; treatment group vs vehicle): decreased | mortality outcome ([3]; treatment group vs vehicle): trend toward improved mortality outcome | in vitro dissolution profile [4]: slower and/or incomplete dissolution | albuminuria [5]: improved | blood pressure [5]: improved | fluid overload [5]: improved | heart hypertrophy [5]: improved | kidney hypertrophy [5]: improved | phosphorus urinary excretion [5]: significantly reduced
